The source made the active and inactive calls. The rule behind the calls is not given here.
Experiments:
[1] = molecular target: T1, Serine/threonine-protein kinase mTOR (Homo sapiens, UniProt P42345); experiment: Inhibition of mTOR (unknown origin)
Histone deacetylase 1 = Histone deacetylase 1 (Homo sapiens, UniProt Q13547); experiment: Inhibition of HDAC1 (unknown origin)
[2] = molecular target: T2, Protein deacetylase HDAC6 (Homo sapiens, UniProt Q9UBN7); experiment: Inhibition of HDAC6 (unknown origin)
T2 sequence (Q9UBN7 whole entry): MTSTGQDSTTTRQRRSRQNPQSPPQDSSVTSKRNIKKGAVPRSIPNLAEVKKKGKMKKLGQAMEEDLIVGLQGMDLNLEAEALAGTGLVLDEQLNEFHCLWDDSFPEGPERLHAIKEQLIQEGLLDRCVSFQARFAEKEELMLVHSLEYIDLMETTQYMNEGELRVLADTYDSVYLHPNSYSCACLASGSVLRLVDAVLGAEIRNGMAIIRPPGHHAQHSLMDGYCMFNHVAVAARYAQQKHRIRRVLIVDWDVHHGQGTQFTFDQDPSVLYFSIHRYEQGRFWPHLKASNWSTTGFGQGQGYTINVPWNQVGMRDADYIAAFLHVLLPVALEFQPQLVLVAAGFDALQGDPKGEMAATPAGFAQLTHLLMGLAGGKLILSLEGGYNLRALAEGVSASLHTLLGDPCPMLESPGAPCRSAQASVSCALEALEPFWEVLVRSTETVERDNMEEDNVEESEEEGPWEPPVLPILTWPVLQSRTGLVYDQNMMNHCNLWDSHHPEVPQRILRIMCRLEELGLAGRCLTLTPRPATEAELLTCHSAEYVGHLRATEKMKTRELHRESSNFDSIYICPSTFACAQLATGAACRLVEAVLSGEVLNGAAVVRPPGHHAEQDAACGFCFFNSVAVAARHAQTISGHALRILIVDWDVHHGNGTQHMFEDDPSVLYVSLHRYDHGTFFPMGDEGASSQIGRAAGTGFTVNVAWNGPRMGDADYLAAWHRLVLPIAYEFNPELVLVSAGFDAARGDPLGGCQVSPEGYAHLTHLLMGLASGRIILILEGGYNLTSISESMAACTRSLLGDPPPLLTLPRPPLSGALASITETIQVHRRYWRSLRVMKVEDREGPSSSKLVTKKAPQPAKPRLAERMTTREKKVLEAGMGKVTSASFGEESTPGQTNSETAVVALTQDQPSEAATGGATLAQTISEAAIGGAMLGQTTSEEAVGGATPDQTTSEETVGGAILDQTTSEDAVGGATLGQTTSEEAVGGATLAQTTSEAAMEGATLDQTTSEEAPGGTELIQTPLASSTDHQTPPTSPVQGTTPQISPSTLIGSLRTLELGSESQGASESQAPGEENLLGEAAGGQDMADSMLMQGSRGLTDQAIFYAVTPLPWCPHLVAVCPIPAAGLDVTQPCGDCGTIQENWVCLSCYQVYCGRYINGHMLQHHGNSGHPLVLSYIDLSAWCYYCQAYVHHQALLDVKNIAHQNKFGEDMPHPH

HCT-116 = experiment: Antiproliferative activity against human HCT-116 cells assessed as reduction in cell viability; assay type: functional, cell-based
Histone deacetylase 8 = molecular target: T3, Histone deacetylase 8 (Homo sapiens, UniProt Q9BY41); experiment: Inhibition of HDAC8 (unknown origin)
T3 sequence (Q9BY41 whole entry): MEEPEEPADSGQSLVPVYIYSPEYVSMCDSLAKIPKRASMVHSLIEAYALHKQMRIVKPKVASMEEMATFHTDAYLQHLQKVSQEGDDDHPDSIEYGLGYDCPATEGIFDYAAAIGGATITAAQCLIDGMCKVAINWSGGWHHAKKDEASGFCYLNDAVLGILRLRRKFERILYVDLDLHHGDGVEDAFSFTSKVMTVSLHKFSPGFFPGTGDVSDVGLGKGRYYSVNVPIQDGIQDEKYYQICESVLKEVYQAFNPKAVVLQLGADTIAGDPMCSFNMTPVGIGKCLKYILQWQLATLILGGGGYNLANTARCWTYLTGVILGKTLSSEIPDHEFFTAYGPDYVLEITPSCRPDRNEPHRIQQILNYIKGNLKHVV

MV4-11 = experiment: Antiproliferative activity against human MV4-11 cells harboring FLT3-ITD mutant assessed as reduction in cell viability; assay type: functional, cell-based
Histone deacetylase 11 = molecular target: T4, Histone deacetylase 11 (Homo sapiens, UniProt Q96DB2); experiment: Inhibition of HDAC11 (unknown origin)
T4 sequence (Q96DB2 whole entry): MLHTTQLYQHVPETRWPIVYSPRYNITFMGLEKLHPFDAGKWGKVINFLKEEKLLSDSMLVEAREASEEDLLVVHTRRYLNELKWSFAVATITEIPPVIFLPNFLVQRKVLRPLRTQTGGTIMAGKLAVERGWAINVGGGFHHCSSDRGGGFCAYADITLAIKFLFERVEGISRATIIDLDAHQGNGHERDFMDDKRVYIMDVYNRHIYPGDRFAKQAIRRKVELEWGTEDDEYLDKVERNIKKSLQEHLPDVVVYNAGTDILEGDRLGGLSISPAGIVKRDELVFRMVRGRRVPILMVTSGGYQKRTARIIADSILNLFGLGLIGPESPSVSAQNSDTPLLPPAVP

A549 = experiment: Antiproliferative activity against human A549 cells assessed as reduction in cell viability; assay type: functional, cell-based
[3] = molecular target: T1, Serine/threonine-protein kinase mTOR; experiment: Inhibition of mTOR complexes in human MV4-11 cells assessed as reduction in p-AKT(Ser473) protein level at 300 nM by Western blot analysis relative to control; assay type: cell-based
[4] = molecular target: T5, Histone deacetylase (Homo sapiens) (UniProt Q13547+O15379+Q9UBN7+Q92769+Q9UQL6+Q8WUI4+Q9BY41+Q96DB2+P56524+Q9UKV0+Q969S8); experiment: Inhibition of HDAC in human MV4-11 cells assessed as increase in acetylation of histone H3 (ac-H3 K9) by Western blot analysis relative to control; assay type: cell-based
[5] = molecular target: T1, Serine/threonine-protein kinase mTOR; experiment: Inhibition of mTOR complexes in human MV4-11 cells assessed as suppression of phosphorylation of S6 ribosomal at Ser235/236 residues at 300 nM by Western blot analysis relative to control; assay type: cell-based
[6] = molecular target: T5, Histone deacetylase (Homo sapiens); experiment: Inhibition of HDAC in human MV4-11 cells assessed as increase in acetylation of alpha-tubulin at Lys40 residue by Western blot analysis relative to control; assay type: cell-based

Histone deacetylase 1, sequence (Q13547 whole entry): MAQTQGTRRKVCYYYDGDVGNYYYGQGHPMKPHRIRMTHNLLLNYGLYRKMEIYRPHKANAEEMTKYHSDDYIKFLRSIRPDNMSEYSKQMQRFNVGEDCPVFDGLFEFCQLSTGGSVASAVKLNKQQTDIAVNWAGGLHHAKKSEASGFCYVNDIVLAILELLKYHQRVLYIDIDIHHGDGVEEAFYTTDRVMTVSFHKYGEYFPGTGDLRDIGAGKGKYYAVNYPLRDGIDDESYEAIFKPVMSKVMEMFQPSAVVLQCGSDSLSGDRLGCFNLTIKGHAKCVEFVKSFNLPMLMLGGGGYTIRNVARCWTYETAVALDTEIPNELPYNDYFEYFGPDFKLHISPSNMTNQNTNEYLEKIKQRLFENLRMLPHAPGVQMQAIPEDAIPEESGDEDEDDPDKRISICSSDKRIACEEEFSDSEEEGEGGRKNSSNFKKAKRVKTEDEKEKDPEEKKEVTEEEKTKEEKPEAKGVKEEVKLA

| SMILES | IC50 [1] [µM] | IC50 (Histone deacetylase 1) [µM] | further results |
| --- | --- | --- | --- |
| Nc1nc2cc(-c3nn(Cc4ccc(C(=O)NO)s4)c4ncnc(N)c34)ccc2o1 | 0.027 | 0.012 |  |
| Nc1ncnc2c1c(-c1cnc3ccccc3c1)nn2CCCCC(=O)NO | 0.677 | 0.065 |  |
| Nc1nc2cc(-c3nn(Cc4ccc(C(=O)NO)cn4)c4ncnc(N)c34)ccc2o1 | 0.025 | 0.011 |  |
| Nc1nc2cc(-c3nn(CCCCCCC(=O)NO)c4ncnc(N)c34)ccc2o1 | 0.0017 | 0.00078 | IC50 [2]: 0.0015 µM; IC50 (HCT-116): 3.78 µM; IC50 (Histone deacetylase 8): 0.021 µM; IC50 (MV4-11): 4.13 µM; IC50 (Histone deacetylase 11): > 1 µM; IC50 (A549): 2.86 µM |
| Nc1ncc(-c2nn(CCCCC(=O)NO)c3ncnc(N)c23)cn1 | > 1 | 0.479 |  |
| Nc1ncc(-c2nn(CCCCCCC(=O)NO)c3ncnc(N)c23)cn1 | > 1 | 0.011 |  |
| Nc1ncnc2c1c(-c1cnc3ccccc3c1)nn2CCCCCCC(=O)NO | 0.619 | 0.0041 |  |
| Nc1ccc(-c2nn(CCCCC(=O)NO)c3ncnc(N)c23)cn1 | > 1 | > 1 |  |
| Nc1ccc(-c2nn(CCCCCCC(=O)NO)c3ncnc(N)c23)cn1 | 0.151 | 0.0073 |  |
| Nc1nc2cc(-c3nn(Cc4ccc(C(=O)NO)o4)c4ncnc(N)c34)ccc2o1 | 0.018 | > 1 |  |

Second part, led by results:

| IC50 [1] [µM] | IC50 (Histone deacetylase 1) [µM] | SMILES | further results |
| --- | --- | --- | --- |
| 0.0019 | 0.065 | Nc1nc2cc(-c3nn(CC4CCN(C(=O)CCCCC(=O)NO)CC4)c4ncnc(N)c34)ccc2o1 |  |
| 0.018 | 0.005 | Nc1nc2cc(-c3nn(Cc4ccc(C(=O)NO)cc4)c4ncnc(N)c34)ccc2o1 |  |
| 0.00049 | 0.00091 | Nc1nc2cc(-c3nn(CC4CCN(c5ncc(C(=O)NO)cn5)CC4)c4ncnc(N)c34)ccc2o1 | inhibition [3]: Active; IC50 [2]: 0.086 µM; IC50 (HCT-116): 3.85 µM; IC50 (Histone deacetylase 8): 0.027 µM; inhibition [4]: Dose-Dependent Effect; inhibition [5]: Active; inhibition [6]: Dose-Dependent Effect; IC50 (MV4-11): 1.74 µM; IC50 (Histone deacetylase 11): > 1 µM; IC50 (A549): 2.16 µM |
| 0.00376 | 0.083 | Nc1nc2cc(-c3nn(CCCCC(=O)NO)c4ncnc(N)c34)ccc2o1 |  |
| 0.0004 | 0.0059 | Nc1nc2cc(-c3nn(CC4CCN(C(=O)c5ccc(C(=O)NO)s5)CC4)c4ncnc(N)c34)ccc2o1 | IC50 (HCT-116): > 10 µM; IC50 (MV4-11): 5.21 µM; IC50 (A549): 5.9 µM |
| 0.00084 | 0.012 | Nc1nc2cc(-c3nn(CC4CCN(C(=O)c5ccc(C(=O)NO)cc5)CC4)c4ncnc(N)c34)ccc2o1 |  |

From ChEMBL document CHEMBL4808220, “Discovery of novel pyrazolopyrimidine derivatives as potent mTOR/HDAC bi-functional inhibitors via pharmacophore-merging strategy” (Bioorg Med Chem Lett, 2021)
